Test results published in patent US20120053170A1, “NICOTINAMIDE DERIVATIVES, PREPARATION THEREOF, AND THERAPEUTIC USE THEREOF AS ANTICANCER DRUGS” (SANOFI, priority 2009, published 2012).

System: HCT116 tumour line (ATCC-CCL247)
Assay: MTS cell proliferation and viability test on the HCT116 tumour line
Assay type: cell-based
Settings: Homo sapiens, HCT-116, incubating the test compound for 72 hours, read-out: IC50 (concentration of compound which results in a 50% loss of cell proliferation and viability)
Procedure: They were tested in vitro on the HCT116 tumour line (ATCC-CCL247). […] In this test, the mitochondrial ability of the living cells to convert MTS to a coloured compound is measured after incubating the test compound for 72 hours.

IC50	Compound
< 1 nM	Nc1ccc(CNC(=O)Nc2ccc(-c3ccc(C(=O)NCCN4CCCCC4)c(Nc4ccccc4)n3)cc2F)cn1 [Compound No. 5, 6-{4-[3-(6-Aminopyridin-3-ylmethyl)ureido]-3-fluorophenyl}-2-phenylamino-N-[2-(piperidin-1-yl)ethyl]nicotinamide]
< 1 nM	CCNc1nc(-c2ccc(NC(=O)NCc3ccc(N)nc3)cc2F)ccc1C(=O)NCCN1CCCCC1 [Compound No. 11, 6-{4-[3-(6-Aminopyridin-3-ylmethyl)ureido]-2-fluorophenyl}-2-ethylamino-N-[2-(piperidin-1-yl)ethyl]nicotinamide]
< 1 nM	CCNc1nc(-c2ccc(NC(=O)NCc3ccc(N)nc3)c(F)c2)ccc1C(=O)NCCN1[C@H](C)CCC[C@@H]1C [Compound No. 19, 6-{4-[3-(6-Aminopyridin-3-ylmethyl)ureido]-3-fluorophenyl]-N-[2-(cis-2,6-dimethylpiperidin-1-yl)ethyl]-2-(ethylamino)nicotinamide]
< 1 nM	CCNc1nc(-c2ccc(NC(=O)NCc3cccnc3)c(F)c2)ccc1C(=O)NCCN1CCCCC1 [Compound No. 27, 2-Ethylamino-6-{3-fluoro-4-[3-(pyridin-3-ylmethyl)ureido]phenyl}-N-[2-(piperidin-1-yl)ethyl]nicotinamide]
